Molecular target: sigma-2 (σ2) site (Homo sapiens, UniProt Q5BJF2)
Assay: not given
Conditions: result in words, background; cited from earlier work

sigma-2 (σ2) site, sequence (Q5BJF2 whole entry): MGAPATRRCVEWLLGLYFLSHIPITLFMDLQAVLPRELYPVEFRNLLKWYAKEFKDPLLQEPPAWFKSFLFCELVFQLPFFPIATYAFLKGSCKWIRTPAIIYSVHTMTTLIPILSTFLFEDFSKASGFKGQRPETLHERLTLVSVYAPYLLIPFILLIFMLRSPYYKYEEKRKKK

Compound | affinity for the sigma-2 (σ2) site
(+)SKF-10047 | micromolar affinity

Molecular target: T1, human σ1 receptor (Homo sapiens, UniProt Q99720)
T1 construct: expressed in transfected cells; host or cells: HEK-293 (membranes)
Assay: Human σ1 receptor radioligand assay
Type: binding
Conditions: transfected HEK-293 membranes, 5 nM [3H](+)-pentazocine as radioligand
Description: Human σ1 Receptor Radioligand Assay
To investigate binding properties of test compounds to human σ1 receptor, transfected HEK-293 membranes and [^3H](+)-pentazocine (Perkin Elmer, NET-1056), as the radioligand, were used. The assay was carried out with 7 μg of membrane suspension, 5 nM of [^3H](+)-pentazocine in either absence or presence of either buffer or 10 μM Haloperidol for total and non-specific binding, respectively. Binding buffer contained Tris-HCl 50 mM at pH 8. Plates were incubated at 37° C. for 120 minutes. After the incubation period, the reaction mix was then transferred to Multiscreen HTS, FC plates (Millipore), filtered and plates were washed 3 times with ice-cold 10 mM Tris-HCL (pH7.4). Filters were dried and counted at approximately 40% efficiency in a MicroBeta scintillation counter (Perkin-Elmer) using EcoScint liquid scintillation cocktail

T1 sequence (Q99720 whole entry): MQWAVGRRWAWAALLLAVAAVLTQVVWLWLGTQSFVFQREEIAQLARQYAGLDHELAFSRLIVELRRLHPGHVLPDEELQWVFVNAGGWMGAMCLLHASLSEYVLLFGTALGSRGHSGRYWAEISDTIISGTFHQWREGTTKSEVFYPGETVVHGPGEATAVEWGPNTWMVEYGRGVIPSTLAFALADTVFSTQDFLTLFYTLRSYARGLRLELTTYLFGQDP

Compound | Ki
CCN1C[C@]2(CC[C@@H](NCc3ccccc3)CC2)OC(C)(C)C1=O [Example 40, (6r,9r)-9-(benzylamino)-4-ethyl-2,2-dimethyl-1-oxa-4-azaspiro[5.5]undecan-3-one] | ≥ 500 nM
CCN1C[C@]2(CC[C@H](N(C)Cc3ccccc3)CC2)OCC1=O [Example 41, (6s,9s)-9-(benzyl(methyl)amino)-4-ethyl-1-oxa-4-azaspiro[5.5]undecan-3-one] | < 500 nM
CCN1C[C@]2(CC[C@@H](N(C)Cc3ccccc3)CC2)OCC1=O [Example 42, (6r,9r)-9-(benzyl(methyl)amino)-4-ethyl-1-oxa-4-azaspiro[5.5]undecan-3-one] | < 100 nM
CCN1C[C@]2(CC[C@H](N(C)Cc3ccccc3)CC2)OC(C)(C)C1=O [Example 43, (6s,9s)-9-(benzyl(methyl)amino)-4-ethyl-2,2-dimethyl-1-oxa-4-azaspiro[5.5]undecan-3-one] | < 100 nM
CCN1C[C@]2(CC[C@@H](N(C)Cc3ccccc3)CC2)OC(C)(C)C1=O [Example 44, (6r,9r)-9-(benzyl(methyl)amino)-4-ethyl-2,2-dimethyl-1-oxa-4-azaspiro[5.5]undecan-3-one] | < 500 nM
CN(Cc1ccccc1)[C@H]1CC[C@@]2(CC1)CN(C(=O)c1ccccc1)CC1(CC1)O2 [Example 45, ((5s,8s)-8-[Benzyl(methyl)amino]-4-oxa-12-azadispiro[2.1.5.3]tridecan-12-yl)(phenyl)methanone] | < 100 nM
CN(Cc1ccccc1)[C@H]1CC[C@]2(CC1)CN(C(=O)c1ccccc1)CC1(CC1)O2 [Example 46, ((5r,8r)-8-[Benzyl(methyl)amino]-4-oxa-12-azadispiro[2.1.5.3]tridecan-12-yl)(phenyl)methanone] | < 500 nM
CCN1C[C@]2(CC[C@H](NC)CC2)OCC1=O [Example 47, (6s,9s)-4-ethyl-9-(methylamino)-1-oxa-4-azaspiro[5.5]undecan-3-one acetate] | ≥ 500 nM
CCN1C[C@]2(CC[C@H](NC)CC2)OC(C)(C)C1=O [Example 48, (6s,9s)-4-ethyl-2,2-dimethyl-9-(methylamino)-1-oxa-4-azaspiro[5.5]undecan-3-one acetate] | ≥ 500 nM
CCN1C[C@]2(CC[C@@H](NC)CC2)OC(C)(C)C1=O [Example 49, (6r,9r)-4-ethyl-2,2-dimethyl-9-(methylamino)-1-oxa-4-azaspiro[5.5]undecan-3-one acetate] | ≥ 500 nM
CN[C@H]1CC[C@@]2(CC1)CN(C(=O)c1ccccc1)CC1(CC1)O2 [Example 50, ((5s,8s)-8-(methylamino)-4-oxa-12-azadispiro[2.1.5.3]tridecan-12-yl)(phenyl)methanone acetate] | ≥ 500 nM
CCN1C[C@]2(CC[C@H](N(C)CCc3ccccc3)CC2)OCC1=O [Example 51, (6s,9s)-4-ethyl-9-(methyl(phenethyl)amino)-1-oxa-4-azaspiro[5.5]undecan-3-one] | < 500 nM
CCN1C[C@]2(CC[C@H](N(C)CCC(C)C)CC2)OCC1=O [Example 52, (6s,9s)-4-ethyl-9-(isopentyl(methyl)amino)-1-oxa-4-azaspiro[5.5]undecan-3-one] | < 500 nM
CCN1C[C@]2(CC[C@H](N(C)CCC(C)C)CC2)OC(C)(C)C1=O [Example 53, (6s,9s)-4-ethyl-9-(isopentyl(methyl)amino)-2,2-dimethyl-1-oxa-4-azaspiro[5.5]undecan-3-one] | < 500 nM
CCN1C[C@]2(CC[C@H](N(C)CC(C)C)CC2)OC(C)(C)C1=O [Example 54, (6s,9s)-4-ethyl-9-(isobutyl(methyl)amino)-2,2-dimethyl-1-oxa-4-azaspiro[5.5]undecan-3-one] | < 500 nM
CCN1C[C@]2(CC[C@H](N(C)CCc3ccccc3)CC2)OC(C)(C)C1=O [Example 55, (6s,9s)-4-ethyl-2,2-dimethyl-9-(methyl(phenethyl)amino)-1-oxa-4-azaspiro[5.5]undecan-3-one] | < 100 nM
CCN1C[C@]2(CC[C@@H](N(C)CCc3ccccc3)CC2)OC(C)(C)C1=O [Example 56, (6r,9r)-4-ethyl-2,2-dimethyl-9-(methyl(phenethyl)amino)-1-oxa-4-azaspiro[5.5]undecan-3-one] | < 100 nM
CCN1C[C@]2(CC[C@@H](N(C)CCC(C)C)CC2)OC(C)(C)C1=O [Example 57, (6r,9r)-4-ethyl-9-(isopentyl(methyl)amino)-2,2-dimethyl-1-oxa-4-azaspiro[5.5]undecan-3-one] | < 100 nM
CN(CCc1ccccc1)[C@H]1CC[C@@]2(CC1)CN(C(=O)c1ccccc1)CC1(CC1)O2 [Example 58, ((5s,8s)-8-[methyl(phenethyl)amino]-4-oxa-12-azadispiro[2.1.5.3]tridecan-12-yl)(phenyl)methanone] | < 500 nM
CC(C)CCN(C)[C@H]1CC[C@@]2(CC1)CN(C(=O)c1ccccc1)CC1(CC1)O2 [Example 59, ((5s,8s)-8-[isopentyl(methyl)amino]-4-oxa-12-azadispiro[2.1.5.3]tridecan-12-yl)(phenyl)methanone] | < 500 nM
CC(C)CN(C)[C@H]1CC[C@@]2(CC1)CN(C(=O)c1ccccc1)CC1(CC1)O2 [Example 60, ((5s,8s)-8-[isobutyl(methyl)amino]-4-oxa-12-azadispiro[2.1.5.3]tridecan-12-yl)(phenyl)methanone] | < 500 nM
CCN1CCO[C@]2(CC[C@@H](N(C)CCc3ccccc3)CC2)C1 [Example 61, (6s,9s)-4-ethyl-N-methyl-N-phenethyl-1-oxa-4-azaspiro[5.5]undecan-9-amine] | < 100 nM
CCN1CC(C)(C)O[C@]2(CC[C@@H](N(C)Cc3ccccc3)CC2)C1 [Example 62, (6s,9s)-N-benzyl-4-ethyl-N,2,2-trimethyl-1-oxa-4-azaspiro[5.5]undecan-9-amine] | < 100 nM
CCN1CCO[C@]2(CC[C@@H](N(C)CCC(C)C)CC2)C1 [Example 63, (6s,9s)-4-ethyl-N-isopentyl-N-methyl-1-oxa-4-azaspiro[5.5]undecan-9-amine] | < 500 nM
CCN1CC(C)(C)O[C@]2(CC[C@@H](N(C)CCC(C)C)CC2)C1 [Example 64, (6s,9s)-4-ethyl-N-isopentyl-N,2,2-trimethyl-1-oxa-4-azaspiro[5.5]undecan-9-amine] | < 100 nM
CCN1CC(C)(C)O[C@]2(CC[C@@H](N(C)CC(C)C)CC2)C1 [Example 65, (6s,9s)-4-ethyl-N-isobutyl-N,2,2-trimethyl-1-oxa-4-azaspiro[5.5]undecan-9-amine] | < 100 nM
CCN1CC(C)(C)O[C@]2(CC[C@@H](N(C)CCc3ccccc3)CC2)C1 [Example 66, (6s,9s)-4-ethyl-N,2,2-trimethyl-N-phenethyl-1-oxa-4-azaspiro[5.5]undecan-9-amine] | < 100 nM
CN(CCc1ccccc1)[C@H]1CC[C@@]2(CC1)CN(Cc1ccccc1)CC1(CC1)O2 [Example 67, (5s,8s)-12-benzyl-N-methyl-N-(2-phenylethyl)-4-oxa-12-azadispiro[2.1.5.3]tridecan-8-amine] | < 100 nM
CC(C)CN(C)[C@H]1CC[C@@]2(CC1)CN(Cc1ccccc1)CC1(CC1)O2 [Example 68, (5s,8s)-12-benzyl-N-isobutyl-N-methyl-4-oxa-12-azadispiro[2.1.5.3]tridecan-8-amine] | < 100 nM

From patent US10183918B2, “Oxa-azaspiro compounds having activity against pain” (LABORATORIOS DEL DR. ESTEVE S.A., priority 2015, dated 2019)
